Assay results reported in the OligoGym collection.
Where “and” joins values, the source holds several entries; their conditions need not be identical. Equal values may be shown once. After the bases stand the sugars from the 5' end (letter, count) and the backbone: PS all phosphorothioate, else s phosphorothioate and o phosphodiester by linkage. Methylation of C is not given here. e = 2'-O-(2-methoxyethyl) (MOE); k = constrained ethyl (cEt); d = 2'-deoxy (DNA)

Legend:
[1] = target: SOD1; conditions: ASO
[2] = target: MALAT1; conditions: ASO, A431, 0.005 µM

Sequence | target mRNA inhibition [2] | also measured
AGAAATTCTGACAAGTT (sugars e3 k2 d7 k2 e3, PS) |  | target mRNA inhibition ([1]; HepG2, 3 µM): 8%
AGACTACATCCAAGGGA (sugars e3 k2 d7 k2 e3, PS) |  | target mRNA inhibition ([1]; HepG2, 3 µM): 39%
AGAGGATTAAAGTGAGG (sugars e3 k2 d7 k2 e3, PS) |  | target mRNA inhibition ([1]; HepG2, 3 µM): 16%
AGCAGTCACATTGCCCA (sugars e3 k2 d7 k2 e3, PS) |  | target mRNA inhibition ([1]; HepG2, 3 µM): 18%
AGCTAGCAGGATAACAG (sugars e2 k2 d9 k2 e2, PS) |  | target mRNA inhibition ([1]; HepG2, 4 µM): 54%
AGGACCTGCACTGGTAC (sugars e3 k2 d7 k2 e3, PS) |  | target mRNA inhibition ([1]; HepG2, 3 µM): 4%
AGGATAACAGATGAGTT (sugars e2 k2 d9 k2 e2, PS) |  | target mRNA inhibition ([1]; HepG2, 0.1875 µM): 32%; target mRNA inhibition ([1]; HepG2, 0.75 µM): 62%; target mRNA inhibition ([1]; HepG2, 3 µM): 89%; target mRNA inhibition ([1]; HepG2, 4 µM): 86%; target mRNA inhibition ([1]; HepG2, 12 µM): 98%
AGGTCATTGAAACAGAC (sugars e2 k2 d8 k2 e3, PS) |  | target mRNA inhibition ([1]; HepG2, 5 µM): 40%
AGTCATCTGCTTTTTCA (sugars e3 k2 d7 k2 e3, PS) |  | target mRNA inhibition ([1]; HepG2, 3 µM): 76%
AGTCTGGCAAAATACAG (sugars e3 k2 d7 k2 e3, PS) |  | target mRNA inhibition ([1]; HepG2, 3 µM): 1%
TTAACAATTTGCAGGC (sugars k3 d10 k3, PS) | 66% and 79% | 
TTAACTTCCCCCAGCT (sugars k3 d10 k3, PS) | 0% | 
TTAAGAACTCCACAGC (sugars k3 d10 k3, PS) | 46% | 
TTAAGACCAAGGGAGG (sugars k3 d10 k3, PS) | 29% | 
TTAATGCTAGTCCTCA (sugars k3 d10 k3, PS) | 39% | 
TTAATGTCAGCCCAGT (sugars k3 d10 k3, PS) | 37% | 
TTACACATCCAAACTC (sugars k3 d10 k3, PS) | 1% | 
TTACAGTTCTTGAACA (sugars k3 d10 k3, PS) | 25% | 
TTACCATAAGTAAGTT (sugars k3 d10 k3, PS) | -20% | 
TTACTCTAATCACTGT (sugars k3 d10 k3, PS) | 33% | 

Sequence | target mRNA inhibition [2] | also measured
TTACTTCCGTTACGAA (sugars k3 d10 k3, PS) | -8% | 
TTAGTAACCTATTGAC (sugars k3 d10 k3, PS) | 34% | 
TTAGTAGCTTTTTGAT (sugars k3 d10 k3, PS) | 39% | 
TTATCTAAATACCACC (sugars k3 d10 k3, PS) | 2% | 
TTATCTGCGGTTTCCT (sugars k3 d10 k3, PS) | 45% | 
TTATTTAGAGGGCCTC (sugars k3 d10 k3, PS) | 57% and 72% | 
TTCAAACTAAGCTACT (sugars k3 d10 k3, PS) | 31% | 
TTCAAGCACCGCTTGA (sugars k3 d10 k3, PS) | 12% and 25% | 
TTCAAGCATTCCTTCG (sugars k3 d10 k3, PS) | 62% | 
TTCAGACAAGATTCAT (sugars k3 d10 k3, PS) | 51% and 37% | 
TTCAGGATCATTAAGC (sugars k3 d10 k3, PS) | 18% | 
TTCCACAGACCTCAAC (sugars k3 d10 k3, PS) | -4% | 
TTCCTTCGGATGCTTC (sugars k3 d10 k3, PS) | 50% | 
TTCGATCACCTTCCGC (sugars k3 d10 k3, PS) | 12% | 
TTCGCTTTTATTCTGC (sugars k3 d10 k3, PS) | 69% and 88% | 
TTCGGTTAAAAATAGG (sugars k3 d10 k3, PS) | -7% | 
TTCTAGACAGACCTAA (sugars k3 d10 k3, PS) | 29% | 
TTCTATAGTCTGAAGA (sugars k3 d10 k3, PS) | 14% | 
TTCTTAACAGCTTATG (sugars k3 d10 k3, PS) | 21% | 
TTCTTCGGTTAAAAAT (sugars k3 d10 k3, PS) | 2% | 

Sequence | target mRNA inhibition [2] | also measured
TTGACCTTAGGATAAT (sugars k3 d10 k3, PS) | 47% | 
TTGCACTCGCTCCTTC (sugars k3 d10 k3, PS) | 33% | 
TTGCAGGGACGGTTGA (sugars k3 d10 k3, PS) | -10% | 
TTGCTCACATGCCAGT (sugars k3 d10 k3, PS) | 40% | 
TTGGCACACTGGCATG (sugars k3 d10 k3, PS) | 24% | 
TTTAAAGTAGACCAAC (sugars k3 d10 k3, PS) | -49% | 
TTTAAATGACGCAATT (sugars k3 d10 k3, PS) | 15% | 
TTTAACTTCCCCCAGC (sugars k3 d10 k3, PS) | -2% | 
TTTAAGCCTTCGGTGC (sugars k3 d10 k3, PS) | 13% | 
TTTAATCATACTCCAG (sugars k3 d10 k3, PS) | 24% | 
TTTACCAACCACTCGC (sugars k3 d10 k3, PS) | 18% | 
TTTATCACTCAGCTGG (sugars k3 d10 k3, PS) | 53% | 
TTTCATCCTACCACTC (sugars k3 d10 k3, PS) | 27% | 
TTTGAAGCATACCTTA (sugars k3 d10 k3, PS) | -1% | 
TTTTAAAAAGGCTCGA (sugars k3 d10 k3, PS) | 12% | 
TTTTAAACGGGTCATC (sugars k3 d10 k3, PS) | 17% | 
TTTTAATCACCTTCGG (sugars k3 d10 k3, PS) | 44% | 
TTTTAGCAGTAACATC (sugars k3 d10 k3, PS) | 34% | 
